Each molecule was assayed against T1, γ-secretase (Homo sapiens, UniProt P49768) (assay: Isolated membrane γ-secretase assay, time-resolved fluorescence detection of Aβ). Settings: isolated membranes, about 90 minutes at 37 degrees C; read-out: Activity (IC50), Inhibition of β-Amyloid Peptide.
T1 construct: The endogenous γ-secretase present in the isolated membranes; endogenous in cells; host or cells: isolated membrane fraction of human-derived cell lines such as HeLa and H4, stably transfected with β-APP substrate
Assay type: biochemical
Excerpt: The detection of γ-secretase activity requires assays capable of reliable, accurate and expedient detection of γ-secretase cleavage products, particularly Aβ. An isolated membrane fraction that contains functionally active γ-secretase and β-APP substrates can generate γ-secretase cleavage products including Aβ (Roberts et al., WO 01/75435; Fechteler et al., Patent Application No. DE 99-19941039 19990828; Shearman et al., Biochemistry, 39, p. 8698–8704 (2000); Zhang et al., Biochemistry, 40, p. 5049-5055 (2001)). An isolated membrane fraction can be prepared from human derived cell lines such as HeLa and H4 which have been transfected with wild type or mutant forms of β-APP or a human alkaline phosphatase β-APP fusion construct, and stably express high levels of γ-secretase substrates. The endogenous γ-secretase present in the isolated membranes prepared at 0–4 degrees C. cleaves the β-APP substrates when the membranes are shifted from 0–4 to 37 degrees C. […] 325–327 (1992), or by a preferred method using time-resolved fluorescence of the homogeneous sample containing membranes and Aβ (Roberts et al., WO 01/75435; Shearman et al., Biochemistry, 39, p. 8698–8704 (2000)). The Aβ present in a homogeneous sample containing membranes can be detected by time-resolved fluorescence with two antibodies that recognize different epitopes of Aβ. One of the antibodies recognizes an epitope that is present in Aβ but not present in the precursor fragments; preferably the antibody binds the carboxyl terminus of Aβ generated by the γ-secretase cleavage. The second antibody binds to any other epitope present on Aβ. For example, antibodies that bind the N-terminal region (e.g., 26D6-B2-B3® SIBIA Neurosciences, La Jolla, Calif.) or bind the C-terminal end (e.g., 9S3.2® antibody, Biosolutions, Newark, Del.) of the Aβ peptide are known. The antibodies are labeled with a pair of fluorescent adducts that transfer fluorescent energy when the adducts are brought in close proximity as a result of binding to the N- and C-terminal ends or regions of Aβ. A lack of fluorescence is indicative of the absence of cleavage products, resulting from inhibition of γ-secretase. The isolated membrane assay can be used to identify candidate agents that inhibit the activity of γ-secretase cleavage and Aβ production.
A typical membrane-based assay requires 45 μg membrane protein per well in a 96- or 384-well format. Membranes in a neutral buffer are combined with the test compound and shifted from 0–4 to 37 degrees C. Test agents may typically consist of synthetic compounds, secondary metabolites from bacterial or fungal fermentation extracts, or extracts from plant or marine samples. All synthetic agents are initially screened at doses ranging from 10–100 μM or in the case of extracts at sufficient dilution to minimize cytotoxicity. Incubation of the membranes with the test agent will continue for approximately 90 minutes at which time fluorescence labeled antibodies are added to each well for Aβ quantitation. The time-resolved fluorescence detection and quantitation of Aβ is described elsewhere (Roberts et al., WO 01/75435; Shearman et al., Biochemistry, 39, p. 8698–8704 (2000)). Results are obtained by analysis of the plate in a fluorescence plate reader and comparison to the mock treated membranes and samples in which known amounts of Aβ were added to construct a standard concentration curve. A positive acting compound is one that inhibits the Aβ relative to the control sample by at least 50% at the initial tested concentration. If a compound is found to be active then a dose response experiment is performed to determine the lowest dose of compound necessary to elicit the inhibition of the production of Aβ.
The Formula I compounds were tested in the assay described above and found to be active as inhibitors of γ-secretase. […]

| SMILES | IC50 [nM] |
| --- | --- |
| CC(O)C[C@@H](C)N(c1cc(Cl)ccc1Cl)S(=O)(=O)c1ccc(Cl)cc1 (mixture of isomers) [Example 7] | 50 to 200 |
| CC(C)C(O)[C@@H](C)N(c1cc(Cl)ccc1Cl)S(=O)(=O)c1ccc(Cl)cc1 (mixture of isomers) [Example 10] | 200 to 5000 |
| CC(C)CC(O)[C@@H](C)N(c1cc(Cl)ccc1Cl)S(=O)(=O)c1ccc(Cl)cc1 (mixture of isomers) [Example 11] | 200 to 5000 |
| C[C@H](C(O)C1CCCC1)N(c1cc(Cl)ccc1Cl)S(=O)(=O)c1ccc(Cl)cc1 (mixture of isomers) [Example 12] | 200 to 5000 |
| C[C@H](C(O)C1CCCCC1)N(c1cc(Cl)ccc1Cl)S(=O)(=O)c1ccc(Cl)cc1 (mixture of isomers) [Example 13] | 200 to 5000 |
| C[C@H](C(O)c1ccccc1)N(c1cc(Cl)ccc1Cl)S(=O)(=O)c1ccc(Cl)cc1 (mixture of isomers) [Example 14] | 200 to 5000 |
| COc1ccc(C(O)[C@@H](C)N(c2cc(Cl)ccc2F)S(=O)(=O)c2ccc(Cl)cc2)cc1 (mixture of isomers) [Example 22] | 200 to 5000 |
| C[C@H](C(O)CC(=O)O)N(c1cc(Cl)ccc1F)S(=O)(=O)c1ccc(Cl)cc1 (mixture of isomers) [Example 24] | 50 to 200 |
| CC(C)CC(O)C[C@@H](C)N(c1cc(Cl)ccc1Cl)S(=O)(=O)c1ccc(Cl)cc1 (mixture of isomers) [Example 28] | 50 to 200 |
| C=CCCC(O)C[C@@H](C)N(c1cc(Cl)ccc1Cl)S(=O)(=O)c1ccc(Cl)cc1 (mixture of isomers) [Example 29] | 50 to 200 |
| C[C@H](CC(O)c1ccccc1)N(c1cc(Cl)ccc1Cl)S(=O)(=O)c1ccc(Cl)cc1 (mixture of isomers) [Example 30] | 50 to 200 |
| C=CCC(O)[C@@H](C)N(c1cc(Cl)ccc1Cl)S(=O)(=O)c1ccc(Cl)cc1 (single isomer, unassigned) [Example 5A] | 50 to 200 |
| C=CCC(O)[C@@H](C)N(c1cc(Cl)ccc1Cl)S(=O)(=O)c1ccc(Cl)cc1 (single isomer, unassigned) [Example 5B] | 200 to 5000 |
| CCCC(O)[C@@H](C)N(c1cc(Cl)ccc1Cl)S(=O)(=O)c1ccc(Cl)cc1 (single isomer, unassigned) [Example 6A] | 50 to 200 |
| CCCC(O)[C@@H](C)N(c1cc(Cl)ccc1Cl)S(=O)(=O)c1ccc(Cl)cc1 (single isomer, unassigned) [Example 6B] | 200 to 5000 |
| CCCC(=O)OC(CCC)[C@@H](C)N(c1cc(Cl)ccc1F)S(=O)(=O)c1ccc(Cl)cc1 (single isomer, unassigned) [Example 8] | 50 to 200 |
| CC(O)C(C)N(c1cc(Cl)ccc1Cl)S(=O)(=O)c1ccc(Cl)cc1 (single isomer, unassigned) [Example 9A] | 50 to 200 |
| Cc1cc(C)c(C(O)[C@@H](C)N(c2cc(Cl)ccc2Cl)S(=O)(=O)c2ccc(Cl)cc2)c(C)c1 (single isomer, unassigned) [Example 16A] | 200 to 5000 |

Now from value to molecule:

| IC50 [nM] | SMILES |
| --- | --- |
| 200 to 5000 | CC(C(O)CCc1ccccc1)N(c1cc(Cl)ccc1Cl)S(=O)(=O)c1ccc(Cl)cc1 (single isomer, unassigned) [Example 17A] |
| 200 to 5000 | CC(C(O)CCc1ccccc1)N(c1cc(Cl)ccc1Cl)S(=O)(=O)c1ccc(Cl)cc1 (single isomer, unassigned) [Example 17B] |
| 50 to 200 | C=CCCC(O)C(C)N(c1cc(Cl)ccc1Cl)S(=O)(=O)c1ccc(Cl)cc1 (single isomer, unassigned) [Example 18A] |
| 200 to 5000 | C=CCCC(O)C(C)N(c1cc(Cl)ccc1Cl)S(=O)(=O)c1ccc(Cl)cc1 (single isomer, unassigned) [Example 18B] |
| 50 to 200 | CC(O)C(C)N(c1cc(Cl)ccc1F)S(=O)(=O)c1ccc(Cl)cc1 (single isomer, unassigned) [Example 19A] |
| 50 to 200 | C=CCCC(O)C(C)N(c1cc(Cl)ccc1F)S(=O)(=O)c1ccc(Cl)cc1 (single isomer, unassigned) [Example 20A] |
| 200 to 5000 | C=CCCC(O)C(C)N(c1cc(Cl)ccc1F)S(=O)(=O)c1ccc(Cl)cc1 (single isomer, unassigned) [Example 20B] |
| < 50 | C#CCC(O)[C@@H](C)N(c1cc(Cl)ccc1F)S(=O)(=O)c1ccc(Cl)cc1 (single isomer, unassigned) [Example 21A] |
| < 50 | C#CCC(O)[C@@H](C)N(c1cc(Cl)ccc1F)S(=O)(=O)c1ccc(Cl)cc1 (single isomer, unassigned) [Example 21B] |
| < 50 | C=CCC(O)[C@@H](C)N(c1cc(Cl)ccc1F)S(=O)(=O)c1ccc(Cl)cc1 (single isomer, unassigned) [Example 23A] |
| < 50 | CCCC(O)[C@@H](C)N(c1cc(Cl)ccc1F)S(=O)(=O)c1ccc(Cl)cc1 (single isomer, unassigned) [Example 27A] |

From patent US6989399B2, “Antiamyloid phenylsulfonamides: N-alkanol derivatives” (Bristol-Myers Squibb Company, priority 2002, dated 2006)
